Counter-ions that a name gives are not always drawn.
Experiments:
Experiment in all cases: two-electrode voltage clamp, Xenopus oocytes, concentration-response
Type in all cases: cell-based
AaegOR15 = molecular target: T1, AaegOR15 (Aedes aegypti, UniProt A0A6B9QIR2)
T1 sequence (A0A6B9QIR2 1-390): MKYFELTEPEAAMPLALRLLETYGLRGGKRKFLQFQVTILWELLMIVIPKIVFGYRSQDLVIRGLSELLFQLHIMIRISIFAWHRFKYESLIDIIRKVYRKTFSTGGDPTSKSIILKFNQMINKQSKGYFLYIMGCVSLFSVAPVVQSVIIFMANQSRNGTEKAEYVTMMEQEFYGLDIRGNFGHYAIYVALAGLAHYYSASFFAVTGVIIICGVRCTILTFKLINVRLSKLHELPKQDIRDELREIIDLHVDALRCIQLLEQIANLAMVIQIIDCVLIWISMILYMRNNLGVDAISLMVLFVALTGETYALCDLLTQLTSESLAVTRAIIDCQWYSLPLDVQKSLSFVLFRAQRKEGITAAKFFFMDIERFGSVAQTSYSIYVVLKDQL
T1 sequence (Q178U6 1-478 partner): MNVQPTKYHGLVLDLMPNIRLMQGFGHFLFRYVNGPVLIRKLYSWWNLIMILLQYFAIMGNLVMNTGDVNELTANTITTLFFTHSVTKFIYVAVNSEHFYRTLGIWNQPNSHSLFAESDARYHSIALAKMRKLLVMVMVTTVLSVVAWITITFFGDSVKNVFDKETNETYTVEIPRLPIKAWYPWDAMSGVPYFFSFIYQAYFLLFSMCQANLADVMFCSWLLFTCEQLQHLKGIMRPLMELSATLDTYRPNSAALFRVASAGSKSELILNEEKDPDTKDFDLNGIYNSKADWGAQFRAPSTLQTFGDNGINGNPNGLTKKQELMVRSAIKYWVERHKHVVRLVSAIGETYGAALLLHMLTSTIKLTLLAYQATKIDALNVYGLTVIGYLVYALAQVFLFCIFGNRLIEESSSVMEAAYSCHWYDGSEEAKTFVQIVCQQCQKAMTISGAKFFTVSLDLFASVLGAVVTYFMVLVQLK

CquiOR4 [1] = molecular target: T2, CquiOR4 (Culex quinquefasciatus, UniProt A0A3G1T0B0)
T2 sequence (A0A3G1T0B0 1-391): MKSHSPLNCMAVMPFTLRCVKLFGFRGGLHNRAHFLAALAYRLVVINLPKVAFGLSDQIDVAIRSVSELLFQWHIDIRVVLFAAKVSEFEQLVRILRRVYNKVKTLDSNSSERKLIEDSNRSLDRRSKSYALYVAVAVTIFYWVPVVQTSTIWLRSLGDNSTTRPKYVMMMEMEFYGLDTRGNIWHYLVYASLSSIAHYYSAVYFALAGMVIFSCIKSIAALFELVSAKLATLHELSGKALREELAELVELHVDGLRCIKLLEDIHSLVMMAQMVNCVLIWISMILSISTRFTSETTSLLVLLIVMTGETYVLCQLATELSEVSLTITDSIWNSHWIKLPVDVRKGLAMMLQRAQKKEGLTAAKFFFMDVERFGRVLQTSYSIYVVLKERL

CquiOR5 = molecular target: T3, CquiOR5 (Culex quinquefasciatus, UniProt A0A3G1T0A9)
T3 sequence (A0A3G1T0A9 1-393): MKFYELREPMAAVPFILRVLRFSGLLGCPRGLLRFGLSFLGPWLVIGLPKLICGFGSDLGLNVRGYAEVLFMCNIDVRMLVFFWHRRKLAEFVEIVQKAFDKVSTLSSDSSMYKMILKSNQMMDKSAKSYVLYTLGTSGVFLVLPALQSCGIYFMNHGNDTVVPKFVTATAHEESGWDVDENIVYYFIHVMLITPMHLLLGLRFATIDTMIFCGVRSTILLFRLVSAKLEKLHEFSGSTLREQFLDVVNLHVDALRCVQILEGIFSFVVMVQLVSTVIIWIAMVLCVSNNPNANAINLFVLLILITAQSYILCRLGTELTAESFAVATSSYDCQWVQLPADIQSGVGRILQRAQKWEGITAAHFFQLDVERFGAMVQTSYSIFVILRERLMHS

CquiOR4 [2] = molecular target: T2, CquiOR4; remark: listed apart in the source

Row | SMILES | two-electrode voltage clamp, Xenopus oocytes, concentration-response (AaegOR15) | also measured
1 | O=COCCc1ccccc1 [phenethyl formate] | AaegOR15/AaegOrco-expressing oocytes generated dose-dependent, robust currents when challenged with phenethyl propionate, phenethyl formate, and acetophenone | –
2 | CCC(=O)OCCc1ccccc1 [phenethyl propionate] | AaegOR15/AaegOrco-expressing oocytes generated dose-dependent, robust currents when challenged with phenethyl propionate, phenethyl formate, and acetophenone | two-electrode voltage clamp, Xenopus oocytes, concentration-response (CquiOR4 [1]): 2-Phenylethanol, phenethyl formate, and phenethyl propionate were the best ligands for CquiOR4
3 | OCc1ccccc1 [benzyl alcohol] | Concentration-dependent responses of AaegOR15·AaegOrco-expressing oocytes to four major odorants | –
4 | CC(=O)c1ccccc1 [acetophenone] | AaegOR15/AaegOrco-expressing oocytes generated dose-dependent, robust currents when challenged with phenethyl propionate, phenethyl formate, and acetophenone | –
5 | C=CC(C)(O)CCC=C(C)C (racemic) [linalool] | – | EC50 (CquiOR5): 574 nM
6 | OCCc1ccccc1 [2-phenylethanol] | – | EC50 (CquiOR4 [2]): 28 nM
